Bounds are passed on as bounds.

For this assay, the target named is T1, recombinant human SAE enzyme (Homo sapiens, UniProt Q9UBT2).
T1 sequence (Q9UBT2 1-640): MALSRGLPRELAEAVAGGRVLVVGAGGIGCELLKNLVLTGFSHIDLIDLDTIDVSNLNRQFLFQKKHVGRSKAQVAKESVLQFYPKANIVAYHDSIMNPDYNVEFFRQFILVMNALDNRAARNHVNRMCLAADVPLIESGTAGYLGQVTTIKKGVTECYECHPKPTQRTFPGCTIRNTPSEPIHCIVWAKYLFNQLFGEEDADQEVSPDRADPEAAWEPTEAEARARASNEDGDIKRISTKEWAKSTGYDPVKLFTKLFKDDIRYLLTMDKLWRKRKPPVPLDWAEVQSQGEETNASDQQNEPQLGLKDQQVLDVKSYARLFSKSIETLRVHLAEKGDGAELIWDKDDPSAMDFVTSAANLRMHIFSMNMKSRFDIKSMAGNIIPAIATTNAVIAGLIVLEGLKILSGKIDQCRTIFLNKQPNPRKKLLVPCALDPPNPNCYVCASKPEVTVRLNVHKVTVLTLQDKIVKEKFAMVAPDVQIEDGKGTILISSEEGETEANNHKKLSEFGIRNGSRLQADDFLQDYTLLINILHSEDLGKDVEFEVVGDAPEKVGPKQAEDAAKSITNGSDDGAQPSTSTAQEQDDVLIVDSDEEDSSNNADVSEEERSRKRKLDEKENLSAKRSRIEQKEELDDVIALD
T1 sequence (Q9UBE0 1-346 partner): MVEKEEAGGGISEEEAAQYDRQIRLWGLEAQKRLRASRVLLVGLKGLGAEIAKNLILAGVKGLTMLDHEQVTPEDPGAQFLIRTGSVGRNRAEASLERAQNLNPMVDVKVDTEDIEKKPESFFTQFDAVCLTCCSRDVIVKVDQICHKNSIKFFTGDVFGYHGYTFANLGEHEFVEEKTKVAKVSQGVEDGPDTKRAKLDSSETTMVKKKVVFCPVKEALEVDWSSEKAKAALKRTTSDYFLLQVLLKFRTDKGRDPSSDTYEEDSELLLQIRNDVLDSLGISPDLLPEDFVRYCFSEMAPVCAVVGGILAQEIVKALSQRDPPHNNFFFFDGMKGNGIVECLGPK
Put plainly: SAE HTRF Enzyme Assay. The assay is classed as biochemical. Conditions: for IC50: class symbols A-C; for inhibition at 0.111 µM: compound concentration 0.111 μM, read-out: Percent Inhibition. A digest of the protocol:
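Reaction with 0.11 nM recombinant human SAE, 0.5 μM ATP, 0.01 μM Ubc9-GST, 0.125 μM Sumo-Flag in HEPES pH 7.5, MgCl2, GSH, BSA, 105 min at 24 °C. Stopped with EDTA/KF buffer carrying Eu-anti-Flag and anti-GST-APC; HTRF read after 2 h; % inhibition or IC50.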
(Time-resolved FRET reads energy transfer from a long-lived donor to a nearby acceptor.)

What is called IC50 is the concentration needed to halve the response being measured. One may read the inhibition as the percentage by which the read-out fell short of the control. For `COc1cc(Cn2ccc(C(=O)c3cncnc3N[C@@H]3C[C@H](COS(N)(=O)=O)[C@@H](O)[C@@H]3F)c2)ccc1F` [Compound I-57, {(1R,2R,3R,4R)-3-Fluoro-4-[(5-{[1-(4-fluoro-3-methoxybenzyl)-1H-pyrrol-3-yl]carbonyl}pyrimidin-4-yl)amino]-2-hydroxycyclopentyl}methyl sulfamate], the half-inhibitory concentration (IC50) is less than 10 nM and the inhibition at 0.111 µM is 98%.
Turning to `NS(=O)(=O)OC[C@H]1C[C@@H](Nc2ncncc2C(=O)c2ccn(Cc3ccc(Cl)c(OC(F)(F)F)c3)n2)C[C@@H]1O` [Compound I-152, [(1R,2S,4R)-4-{[5-({1-[4-Chloro-3-(trifluoromethoxy)benzyl]-1H-pyrazol-3-yl}carbonyl)pyrimidin-4-yl]amino}-2-hydroxycyclopentyl]methyl sulfamate], the IC50 is less than 10 nM and the inhibition at 0.111 µM was determined as 94%.
On the same counts, the results for `Cc1cccc(Cn2nc(C(=O)c3cncnc3N[C@@H]3C[C@H](COS(N)(=O)=O)[C@@H](O)C3)cc2C)c1` [Compound I-248, {(1R,2S,4R)-2-hydroxy-4-[(5-{[5-methyl-1-(3-methylbenzyl)-1H-pyrazol-3-yl]carbonyl}pyrimidin-4-yl)amino]cyclopentyl}methyl sulfamate] are less than 10 nM and 99%.
As for `CC#Cc1cccc(Cn2ccc(C(=O)c3cncnc3N[C@@H]3C[C@H](COS(N)(=O)=O)[C@@H](O)C3)n2)c1` [Compound I-84, [(1R,2S,4R)-2-hydroxy-4-{[5-({1-[3-(prop-1-yn-1-yl)benzyl]-1H-pyrazol-3-yl}carbonyl)pyrimidin-4-yl]amino}cyclopentyl]methyl sulfamate], the IC50 was less than 10 nM and the inhibition at 0.111 µM was found to be 95%.
In the case of `Cc1cc(C(=O)c2cncnc2N[C@@H]2C[C@H](COS(N)(=O)=O)[C@@H](O)[C@H]2O)nn1Cc1ccccc1` [Compound I-31, [(1R,2R,3S,4R)-4-({5-[(1-benzyl-5-methyl-1H-pyrazol-3-yl)carbonyl]pyrimidin-4-yl}amino)-2,3-dihydroxycyclopentyl]methyl sulfamate], the IC50 is less than 10 nM and the inhibition at 0.111 µM came to 94%.
On to `Cn1nc(C(F)(F)F)cc1Cn1ccc(C(=O)c2cncnc2N[C@@H]2C[C@H](COS(N)(=O)=O)[C@@H](O)C2)c1` [Compound I-45, [(1R,2S,4R)-2-hydroxy-4-({5-[(1-{[1-methyl-3-(trifluoromethyl)-1H-pyrazol-5-yl]methyl}-1H-pyrrol-3-yl)carbonyl]pyrimidin-4-yl}amino)cyclopentyl]methyl sulfamate], for which the IC50 was 10 to 100 nM and the inhibition at 0.111 µM turned out to be 93%.
As to `NS(=O)(=O)OC[C@H]1C[C@@H](Nc2ncncc2C(=O)c2ccn(Cc3c(F)ccc(F)c3F)n2)C[C@@H]1O` [Compound I-16, {(1R,2S,4R)-2-hydroxy-4-[(5-{[1-(2,3,6-trifluorobenzyl)-1H-pyrazol-3-yl]carbonyl}pyrimidin-4-yl)amino]cyclopentyl}methyl sulfamate], the half-inhibitory concentration (IC50) was less than 10 nM and the inhibition at 0.111 µM was determined as 98%.
For `Cc1cc(C(=O)c2cncnc2N[C@@H]2C[C@H](COS(N)(=O)=O)[C@@H](O)C2)nn1Cc1cccc(Br)n1` [Compound I-238, [(1R,2S,4R)-4-{[5-({1-[(6-bromopyridin-2-yl)methyl]-5-methyl-1H-pyrazol-3-yl}carbonyl)pyrimidin-4-yl]amino}-2-hydroxycyclopentyl]methyl sulfamate], the IC50 is less than 10 nM and the inhibition at 0.111 µM was found to be 99%.
Regarding `NS(=O)(=O)OC[C@H]1C[C@@H](Nc2ncncc2C(=O)c2ccn(Cc3ccc(F)cc3C(F)(F)F)n2)[C@H](O)[C@@H]1O` [Compound I-121, [(1R,2R,3S,4R)-4-{[5-({1-[4-fluoro-2-(trifluoromethyl)benzyl]-1H-pyrazol-3-yl}carbonyl)pyrimidin-4-yl]amino}-2,3-dihydroxycyclopentyl]methyl sulfamate], the half-maximal inhibitory concentration (IC50) is less than 10 nM and the inhibition at 0.111 µM came out at 94%.
On to `NS(=O)(=O)OC[C@H]1C[C@@H](Nc2ncncc2C(=O)c2ccn(Cc3cc(C(F)(F)F)ccc3C(F)(F)F)n2)[C@H](O)[C@@H]1O` [Compound I-267, [(1R,2R,3S,4R)-4-{[5-({1-[2,5-bis(trifluoromethyl)benzyl]-1H-pyrazol-3-yl}carbonyl)pyrimidin-4-yl]amino}-2,3-dihydroxycyclopentyl]methyl sulfamate], for which the half-maximal inhibitory concentration (IC50) was less than 10 nM and the inhibition at 0.111 µM was 97%.
On the same counts, the results for `COC(C)c1cc(C(=O)c2cncnc2N[C@@H]2C[C@H](COS(N)(=O)=O)[C@@H](O)C2)nn1Cc1cccc(Br)c1` (mixture of isomers) [Compound I-369, [(1R,2S,4R)-4-{[5-({1-(3-bromobenzyl)-5-[(1S)-1-methoxyethyl]-1H-pyrazol-3-yl}carbonyl)pyrimidin 4-yl]amino)-2-hydroxycyclopentyl]methyl sulfamate and [(1R,2S,4R)-4-{[5-({1-(3-bromobenzyl)-5-[(1R)-1-methoxyethyl]-1H-pyrazol-3-yl}carbonyl)pyrimidin-4-yl]amino}-2-hydroxycyclopentyl]methyl sulfamate] are less than 10 nM and 98%.
Regarding `Cc1cc(C(=O)c2cncnc2N[C@@H]2C[C@H](COS(N)(=O)=O)[C@@H](O)[C@@H]2F)nn1Cc1cccc(Br)c1` [Compound I-186, {(1R,2R,3R,4R)-4-[(5-{[1-(3-Bromobenzyl)-5-methyl-1H-pyrazol-3-yl]carbonyl}pyrimidin-4-yl)amino]-3-fluoro-2-hydroxycyclopentyl}methyl sulfamate], the half-inhibitory concentration (IC50) was less than 10 nM and the inhibition at 0.111 µM was more than 99%.
Take `NS(=O)(=O)OC[C@H]1C[C@@H](Nc2ncncc2C(=O)c2ccn(CC(=O)N3CCCC3)n2)[C@@H](F)[C@@H]1O` [Compound I-19, [(1R,2R,3R,4R)-3-Fluoro-2-hydroxy-4-{[5-({1-[2-oxo-2-(pyrrolidin-1-yl)ethyl]-1H-pyrazol-3-yl}carbonyl)pyrimidin-4-yl]amino}cyclopentyl]methyl sulfamate]: the IC50 is 100 to 1000 nM and the inhibition at 0.111 µM turned out to be 20%.
With `NS(=O)(=O)OC[C@H]1C[C@@H](Nc2ncncc2C(=O)c2ccn(Cc3cc(C(F)(F)F)cc(C(F)(F)F)c3)c2)C[C@@H]1O` [Compound I-168, [(1R,2S,4R)-4-{[5-({1-[3,5-Bis(trifluoromethyl)benzyl]-1H-pyrrol-3-yl}carbonyl)pyrimidin-4-yl]amino}-2-hydroxycyclopentyl]methylsulfamate], the IC50 is less than 10 nM and the inhibition at 0.111 µM came to 94%.
Turning to `NS(=O)(=O)OC[C@H]1C[C@@H](Nc2ncncc2C(=O)c2ccn(Cc3ccccc3)n2)C[C@@H]1O` [Compound I-158, [(1R,2S,4R)-4-({5-[(1-Benzyl-1H-pyrazol-3-yl)carbonyl]pyrimidin-4-yl}amino)-2-hydroxycyclopentyl]methyl sulfamate], the concentration for half-maximal inhibition (IC50) was less than 10 nM and the inhibition at 0.111 µM was 95%.
In the case of `Cc1cn(Cc2cccc(Br)c2)cc1C(=O)c1cncnc1N[C@@H]1C[C@H](COS(N)(=O)=O)[C@@H](O)[C@@H]1F` [Compound I-149, {(1R,2R,3R,4R)-4-[(5-{[1-(3-bromobenzyl)-4-methyl-1H-pyrrol-3-yl]carbonyl}pyrimidin-4-yl)amino]-3-fluoro-2-hydroxycyclopentyl}methyl sulfamate], the IC50 lay within 10 to 100 nM and the inhibition at 0.111 µM amounted to 85%.
For the molecule `NS(=O)(=O)OC[C@H]1C[C@@H](Nc2ncncc2C(=O)c2ccn(Cc3ccc(Cl)c(Cl)c3)n2)[C@@H](F)[C@@H]1O` [Compound I-311, {(1R,2R,3R,4R)-4-[(5-{[1-(3,4-dichlorobenzyl)-1H-pyrazol-3-yl]carbonyl}pyrimidin-4-yl)amino]-3-fluoro-2-hydroxycyclopentyl}methyl sulfamate], the half-inhibitory concentration (IC50) is less than 10 nM and the inhibition at 0.111 µM was 98%.
As for `NS(=O)(=O)OC[C@H]1C[C@@H](Nc2ncncc2C(=O)c2ccn(Cc3ccc(F)c(OC(F)(F)F)c3)c2)C[C@@H]1O` [Compound I-211, [(1R,2S,4R)-4-{[5-({1-[4-fluoro-3-(trifluoromethoxy)benzyl]-1H-pyrrol-3-yl}carbonyl)pyrimidin-4-yl]amino}-2-hydroxycyclopentyl]methyl sulfamate], the IC50 is less than 10 nM and the inhibition at 0.111 µM turned out to be 97%.
